For 88 compounds, melting point results are on record in a melting point compilation (Tetko et al.; mined from patent text by program, amines drawn as free bases though some values may be those of a salt).

A value given as a limit tells only on which side of the number the result lay.

A word on the melting point: it is the temperature, or range, at which the solid turns liquid.

`Cc1ccn(-c2ccc(C(=O)N3Cc4cccn4Cc4ccccc43)c(Cl)n2)n1` yielded a melting point of 171 to 172 °C.
With `CN(C)CCN(C)c1ccc2nnc(-c3cnc([N+](=O)[O-])n3C)n2n1`, the melting point was in the range of 196 to 198 °C.
The compound `COC1(C)CN(c2ccc([N+](=O)[O-])cc2F)C1` displayed a melting point of 110 to 111 °C.
With `CC1(C)OCC(COS(=O)(=O)c2ccc([N+](=O)[O-])cc2)O1` (stereo not drawn), the melting point fell in the range of 92 to 94 °C.
For `O=C1N(Cc2ccccn2)c2ccccc2C12COc1ccc3nonc3c12` (stereo not drawn), the melting point fell in the range of 180 to 182 °C.
The figure for `CCCN(CCC)CCCCNC(=O)c1cnc2cc(I)ccc2n1` is 74 to 76 °C; for `CC(=O)OC1CSC(Oc2cc(F)cnc2C#N)C(OC(C)=O)C1OC(C)=O` (stereo not drawn) it is 150 °C; for `CCOC(=O)[C@H](Cc1ccc(O)cc1)NC(=O)C(C)(C)NC(=O)[C@@H](SC(C)=O)C(C)C` it is 137 to 138 °C.
With `CCCCCCCc1cnc(-c2ccc(OC(=O)c3cc(N)c(O[C@H](C)CCCCCC)cc3[N+](=O)[O-])cc2)nc1`, the melting point turned out to be 105 °C.
The compound `COc1ccc2c(=O)c(C(N)=O)c(N)oc2c1` yielded a melting point of 265 to 266 °C.
As to `CN1CCN(c2ccccc2CC2CCN(c3ccc(F)c(F)c3)C2=O)CC1` (stereo not drawn), the melting point lay in the range of 130 to 131 °C.
`CS(=O)(=O)Nc1ccc(NC(=O)CN2CCC(Cc3ccccc3)CC2)cc1` showed a melting point of 102 to 106 °C.
As for `Cc1nc2c(N)nc3cc(-c4ccccc4)ccc3c2n1CCCS(C)(=O)=O`, the melting point lay within 203 to 205 °C.
Consider `COc1cncnc1N1CCN(CCCc2c[nH]c3ccc(CNS(C)(=O)=O)cc23)CC1C` (stereo not drawn), for which the melting point lay in the range of 210 to 214 °C.
Compound `O=C(c1ccc(-c2ccccc2)cc1)c1cccc(C(=O)c2ccc(-c3ccccc3)cc2)c1` showed a melting point of 182 to 186 °C.
Turning to `CC(C)c1nc2cc(COc3ccc(C=O)cc3)ccc2o1`, the melting point lay in the range of 86 to 88 °C.
`OC(c1ccncc1)c1c[nH]c(-c2ccc(F)cc2)c1-c1ccncc1` (single isomer, unassigned; (+)) had a melting point of 202 to 205 °C.
Turning to `CCCn1c(=O)n(CC(C)O)c(=O)c2[nH]c(C34CC5CC(CC3C5)C4)nc21` (stereo not drawn), the melting point lay in the range of 195 to 197 °C.
As for `Cc1ccc(-c2nccc(-c3cccc(C(=O)O)c3)n2)cc1`, the melting point lay in the range of 225 to 226 °C.
`CCCCCCOc1ccc2c(c1)C=C(C=O)CO2` returned a melting point of 36 to 38 °C.
`COC(=O)c1ccc2c(c1)-n1cccc1CO2` had a melting point of 60 to 62 °C.
In turn, `O=C(NCC1Cc2cc(Cl)c3c(c2O1)CCC3)OCc1ccccc1` (stereo not drawn) displayed a melting point of 118 to 121 °C.
`O=c1[nH]c2cccc(C(F)(F)F)c2c(=O)o1` gave a melting point of 232 to 233 °C.
With `Cc1cc2c(s1)Nc1ccccc1N=C2N1CCN(C)[C@@H](CO)C1` the figure was 118 to 124 °C; with `CCOCc1cc(OC)c(-c2ccc(C[C@H](NC(=O)c3c(Cl)cccc3Cl)C(=O)OCC)cc2)c(OC)c1`, 91 to 94 °C.
`CCOC(=O)C1=C(C)NC(N)=C(C(=O)OCC)C1C` (stereo not drawn) registered a melting point of 140 °C.
`N#Cc1ccc(N(CCOc2ccc(OCc3ccccc3)c(Br)c2)n2cnnc2)cc1` had a melting point of 163 to 166 °C.
Consider `CCCCc1nc2c(N)nc3ccccc3c2n1CCCCS(=O)(=O)c1ccccc1`, for which the melting point fell in the range of 179 to 180 °C.
Compound `CC(C)(C)OC(=O)Cn1c(C(=O)OCc2ccccc2)cc2ccccc21` showed a melting point of 95 to 96 °C.
The figure for `Cc1cc(C)cc(NCc2ccc3nc(NCCCN4CCOCC4)n(Cc4nc(C)ccc4O)c3c2)c1` is 199 °C; for `CSC(C[C@@H]1CC(=O)N1[Si](C)(C)C(C)(C)C)(SC)SC` it is 61 to 62 °C; for `O=C1OC(CCc2ccccc2)(c2ccccc2)CC(O)=C1SCc1cccc2ccccc12` (stereo not drawn) it is 132 to 134 °C.
`CCOC(=O)c1cccc2c1N=C(c1ccccc1)CC2=O` gave a melting point of 218 to 219 °C.
The compound `CCCn1nc2c(N)nc3c(c2c1CCCc1cc(C)no1)CCCC3` returned a melting point of 144 to 145 °C.
On to `Cc1cn(C(C)(C)C(=O)N(C)C)nc1-c1ccccc1F`, for which the melting point was in the range of 112 to 114 °C.
With `CC1(CN2CCN(Cc3ccccc3)C2=O)Cn2cc([N+](=O)[O-])nc2O1` (stereo not drawn) the figure was 180 to 181 °C.
For `NS(=O)(=O)c1ccc(-n2ncc(F)c2-c2ccccc2)cc1`, the melting point is 194 °C.
Compound `COc1ccc(CSC(=S)N2C(CO)Cc3c([nH]c4ccccc34)C2C)cc1` (stereo not drawn) showed a melting point of 152 to 153 °C.
The figure for `COc1cc(CCNC(=O)C(NC(=O)OC(C)(C)C)C(C)C)ccc1OCC#Cc1ccc(Cl)cc1` (stereo not drawn) is 141 to 142 °C; for `CC(C)CC(NC(=O)N1CCc2cc(S(=O)(=O)N3CCN(c4cccc(Cl)c4)CC3)ccc21)C(=O)O` (stereo not drawn) it is 138 to 140 °C; for `Cc1ccc(OCCOc2cccc(C)c2)cc1` it is 94 °C.
The figure for `CS(=O)(=O)NS(=O)(=O)c1cccc(NC(=O)NC2N=C(c3ccccc3F)c3ccccc3N(CC(=O)N3CC4CCC(CC4)C3)C2=O)c1` (racemic) is more than 250 °C; for `O=C(O)CCNC(=O)c1ccccc1NC(=O)c1ccccc1O` it is 200 to 202 °C.
With `COc1nc(N)nc(C(C)C)n1`, the melting point lay within 116 to 118 °C.
`CC1(COc2ccc(S(=O)(=O)C3SC(=O)NC3=O)cc2)CCCCC1` (stereo not drawn) yielded a melting point of 174 to 175 °C.
With `O=C(O)c1ccc(F)cc1NC(=O)C(F)(F)F`, the melting point is 166 to 168 °C.
`CC(C)N(C(=O)CN1C(=O)C(C)(CC(=O)Nc2ccccc2)C(=O)N(c2ccc(Cl)cc2)c2ccccc21)c1ccccc1` (stereo not drawn) had a melting point of 170 to 176 °C.
For `Oc1ccc(NCCCCCCBr)cc1`, the melting point lay in the range of 123 to 126 °C.
The compound `COc1ccc(-c2nc(-c3ccccc3)c(N(C)c3ccccc3)s2)cc1` registered a melting point of 100 to 101 °C.
`CN(c1cncnc1)c1nc(N2CCOCC2)nc(-n2c(C(F)F)nc3ccccc32)n1` gave a melting point of 202 to 205 °C.
As for `CC1C(C)(C)C2CCc3cnoc3C2C1(C)C` (stereo not drawn), the melting point turned out to be 82.3 °C.
On to `Oc1cnccc1N=CN1CCCCCC1`, for which the melting point fell in the range of 117 to 118 °C.
Compound `c1ccc(OCCSCc2nnc(-c3ccc(OCc4ccncc4)cc3)o2)cc1` returned a melting point of 80 to 90 °C.
With `Cc1nc(N2CCN(CC3CC3)C2=O)sc1C(=O)NCc1ccncc1` the figure was more than 200 °C; with `CNC(=O)CN1CCC(O)C1=O` (stereo not drawn), 129 to 130 °C.
`C/C(=C\c1ccc(C(=O)O)cc1)c1ccc2c(c1)CCCCC2` came in with a melting point of 198 °C.
The figure for `Cc1csc(NC(=O)N(C)C)n1` is 97 to 98 °C.
`CC(=O)SC[C@@H](C(=O)N[C@H](CC(C)C)c1nnn[nH]1)C(F)(F)F` yielded a melting point of 180 to 184 °C.
For `Cc1c(Br)c(=O)c(C(=O)O)c(-c2ccccc2)n1C`, the melting point was 252 to 253 °C.
As to `CCCOc1ccc(S(=O)(=O)Nc2ccc3[nH]ncc3c2)cc1-c1nc2cc3nc[nH]c3cc2c(=O)[nH]1`, the melting point lay within 261 to 263 °C.
Compound `Nc1ccccc1CN[C@@H](CSCC(=O)O)C(=O)O` gave a melting point of 214 °C.
`NCCC1(O)CCc2ccccc2C12CCCC2` (stereo not drawn) had a melting point of 107 to 109 °C.
Compound `OCCCN1CCN(c2ccccc2OCC(F)(F)F)CC1` yielded a melting point of 94 to 96 °C.
The figure for `C#CC1(c2ccc(OC(F)F)c(OCC3CC3)c2)CCC(=O)CC1` is 75 to 77 °C.
For the compound `CS(=O)(=O)On1nnc2ccccc21`, the melting point lay in the range of 88 to 90 °C.
In the case of `CC(=O)OC1CSC(Oc2cccc(-c3ccc(C#N)nc3)c2)C(OC(C)=O)C1OC(C)=O` (stereo not drawn), the melting point is 130 °C.
With `O=C(O)c1ccc(-n2cnnc2S)cc1` the figure was more than 300 °C; with `CCOC(=O)C1CSCCN1C(=O)Nc1ccc(Cl)cc1F` (stereo not drawn), 112 °C; with `CCCC(=O)C1=C(O)CC(c2c(C)c(C)c(C)c3c2OC(C)C3C)CC1=O` (stereo not drawn), 119 to 120 °C.
Compound `CC(=O)c1cccc(S(=O)(=O)NCc2ccccc2-c2ccccc2C(=O)NCc2ccccc2)c1` displayed a melting point of 182 °C.
Compound `Cc1cc(-c2ccc(Cl)c(Cl)c2)nc(-c2ccnc(-c3cccc(S(N)(=O)=O)c3)c2)n1` showed a melting point of 202 °C.
As for `CCCN(CCC)c1c(C#N)cnn1-c1ccc(Cl)c(Cl)c1Cl`, the melting point lay within 99 to 100 °C.
The compound `COC(=O)C(C#N)c1nc(-c2c(F)cccc2F)cs1` (stereo not drawn) showed a melting point of 219 to 224 °C.
For `CCOP(=O)(OCC)c1cnn(-c2ccc(Cl)c(Cl)c2Cl)c1N`, the melting point worked out at 114 °C.
For the compound `FCC1(CF)OC1(CBr)c1cc(C(F)(F)F)ccc1Cl` (stereo not drawn), the melting point was 54 to 55 °C.
`O=C(CC12CC3CC(CC(C3)C1)C2)Nc1ccc(O)cc1Cl` yielded a melting point of 224 to 225 °C.
`CC(C)(C)OC(=O)n1c(=O)n(C2CC3CC(N4CCN(c5ccc(F)cc5)CC4)CC3C2)c2ccccc21` (stereo not drawn) registered a melting point of 244 to 245 °C.
Regarding `O=C1NCCCN1CCCN(Cc1ccccc1)CC1CCc2ccccc2O1` (stereo not drawn), the melting point worked out at 94.7 °C.
For the compound `O=C(N[C@H](Cc1ccc(C(F)(F)F)cc1)[C@@H](O)c1ccc(F)cc1)c1cccc2c1OCC2` (racemic), the melting point was 121 to 122 °C.
In turn, `Oc1cnc2[nH]ccc2c1` yielded a melting point of 206 to 209 °C.
`O=C(O)N1C=NN2c3cccnc3N(c3cccc(Cl)c3)CC12` (stereo not drawn) registered a melting point of 213 to 216 °C.
`C=CCNc1c(C(=O)OCC)cnc2cn(C)nc12` came in with a melting point of 140 to 143 °C.
In turn, `O=C(O)c1ncc(Br)cc1Br` registered a melting point of 170 to 171 °C.
Regarding `CCCC1Cc2c3c(c(C)c(C)c2C1=O)OC(C(=O)O)C3` (stereo not drawn), the melting point was 161 °C.
`COc1ccccc1OCCCCCOc1ccc(C#N)cc1` gave a melting point of 61 to 63 °C.
Regarding `COC(=O)C(C)(C)c1ccc(C(=O)Nc2cn3c4c(ccc3n2)OCC4)cc1`, the melting point is 235 to 237 °C.
With `Cc1ccc2c(c1)C(c1ccccc1Cl)C(=O)N2` (stereo not drawn) the figure was 208 °C; with `Cc1cccc(NC(C(N)=O)c2ccccc2C)c1` (stereo not drawn), 90 to 91.5 °C.
